# Experimental data from publication PMC10709409, “Cryo-EM structures of human organic anion transporting polypeptide OATP1B1” (Cell Research, 2023).
# Columns and labels:
# [1] = target: T1, OATP1B1 (Homo sapiens, UniProt Q9Y6L6); test: cryo-EM structure (outward-open, […] Å); also cell DCF uptake assay; format: binding; set-up: gene SLCO1B1; human OATP1B1 with C-terminal tandem His and Flag tags
# T1 sequence (Q9Y6L6 1-691): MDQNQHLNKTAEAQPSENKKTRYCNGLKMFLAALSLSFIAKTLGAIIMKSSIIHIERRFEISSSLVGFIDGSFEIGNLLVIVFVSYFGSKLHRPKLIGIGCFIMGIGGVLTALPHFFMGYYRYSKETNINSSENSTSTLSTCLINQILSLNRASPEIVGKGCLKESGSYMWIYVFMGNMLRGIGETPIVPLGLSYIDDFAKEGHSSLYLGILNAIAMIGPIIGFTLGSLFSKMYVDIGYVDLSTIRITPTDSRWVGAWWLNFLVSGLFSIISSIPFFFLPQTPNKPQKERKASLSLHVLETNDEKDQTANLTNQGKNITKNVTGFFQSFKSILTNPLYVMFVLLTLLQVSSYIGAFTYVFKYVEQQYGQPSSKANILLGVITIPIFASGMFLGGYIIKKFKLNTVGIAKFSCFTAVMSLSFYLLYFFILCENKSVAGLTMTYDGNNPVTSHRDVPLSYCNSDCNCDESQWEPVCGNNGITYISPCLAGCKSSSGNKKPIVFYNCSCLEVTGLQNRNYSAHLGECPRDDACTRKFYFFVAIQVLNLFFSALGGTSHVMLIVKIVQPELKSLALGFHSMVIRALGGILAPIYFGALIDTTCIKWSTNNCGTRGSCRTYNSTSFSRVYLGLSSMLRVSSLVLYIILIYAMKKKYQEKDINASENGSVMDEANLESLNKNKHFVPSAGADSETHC
# [2] = target: T1, OATP1B1; test: cryo-EM structure (inward-open, […] Å); also [3H]-E3S proteoliposome counterflow and DCF uptake inhibition; format: binding; set-up: gene SLCO1B1; human OATP1B1 with C-terminal tandem His and Flag tags
# [3] = target: T1, OATP1B1; set-up: gene SLCO1B1
Structure (SMILES),"cryo-EM structure (outward-open, 3.73 Å); also DCF uptake inhibition in HEK293T [3]",other results
"O=C1OC2(c3cc(Cl)c(O)cc3Oc3cc(O)c(Cl)cc32)c2ccccc21 [D, 2′,7′-dichlorofluorescein]",,"cryo-EM structure (outward-open, 2.92 Å); also cell DCF uptake assay [1]: DCF extends towards a minor hydrophilic pocket within the interior of the CTD by forming hydrogen-bond interactions with N544 and S548"
"C[C@]12CC[C@H]3c4ccc(OS(=O)(=O)O)cc4CC[C@@H]3[C@@H]1CCC2=O [E, estrone-3-sulfate]",,"cryo-EM structure (inward-open, 3.2 Å); also [3H]-E3S proteoliposome counterflow [2]: The EM density of E3S in OATP1B1–Ein is unambiguously resolved, allowing us to discern the pose of the E3S"
"COc1ccc2c(O[C@@H]3C[C@H]4C(=O)N[C@]5(C(=O)NS(=O)(=O)C6CC6)C[C@H]5/C=C\CCCCN(C)C(=O)[C@@H]4C3)cc(-c3nc(C(C)C)cs3)nc2c1C [S, simeprevir]","Bilirubin and simeprevir occupy the major pocket located in the central cavity, while DCF binds to the minor pocket",
"C=CC1=C(C)/C(=C/c2[nH]c(Cc3[nH]c(/C=C4\NC(=O)C(C)=C4C=C)c(C)c3CCC(=O)O)c(CCC(=O)O)c2C)NC1=O [B, bilirubin]","Bilirubin and simeprevir occupy the major pocket located in the central cavity, while DCF binds to the minor pocket",
